This is an account of results in paper PMC3759991 (Clinical cancer research : an official journal of the …, 2012).

Where no end group is shown, it is not given here. Where only a bound is given, the exact number is not on record here.

What is called IC50 is the concentration needed to halve the response being measured. A low value points to inhibition by little substance.

In one assay the target is HLA-A*0301 (Homo sapiens, UniProt P04439). Put plainly: competitive MHC allele binding assay, A*0301.
For the next assay, the target named is HLA-A*1101 (Homo sapiens, UniProt P04439, A114D/D185E/E176A/F33Y/L180Q/S129P/T187R). The assay can be described thus: competitive MHC allele binding assay, A*1101.
Another assay has as its target HLA-A*3001 (Homo sapiens, UniProt P04439, D140H/D185E/E176W/F33S/G80R/H175R/K168Q/R138E/R41S). The assay can be described thus: competitive MHC allele binding assay, A*3001.
A further assay concerns the target HLA-A*3101 (Homo sapiens, UniProt P04439, A270S/D185E/E176V/E277Q/F33T/G231S/G80R/H175R/I121M/I218V/I322F/K168Q/L300P/L318F/M331R/P217A/Q94H/R138Q/T323A/T345S/T97I/V358M). The assay can be described thus: competitive MHC allele binding assay, A*3101.
The next assay deals with HLA-A*3301 (Homo sapiens, UniProt P04439, A270S/D185E/E176V/E277Q/E87N/F33T/G231S/H175R/I121M/I218V/I322F/K168Q/K210R/L300P/L318F/M331R/P217A/Q86R/Q94H/R138Q/T323A/T345S/T97I/V358M/Y195H). Put plainly: competitive MHC allele binding assay, A*3301.
Another assay concerns the target HLA-A*6801 (Homo sapiens, UniProt P04439, A269V/D185E/E176V/E277Q/E87N/F33Y/G231S/I121M/I166T/I218V/L180W/L300P/L318F/N151K/P208A/P217A/Q86R/R169H/T345S). Put plainly: competitive MHC allele binding assay, A*6801.

On to EVYEGVWKK [E225K-B WT], for which the half-maximal inhibitory concentration (IC50) was 1070 nM at HLA-A*0301; 63 nM on HLA-A*1101; greater than 70 µM at HLA-A*3001; greater than 70 µM at HLA-A*3101; 60 nM on HLA-A*3301; 0.01 µM at HLA-A*6801.
As to KLGGGQYGK [E255K-A], the half-maximal inhibitory concentration (IC50) on HLA-A*0301 was 208 nM; on HLA-A*1101, 1070 nM; at HLA-A*3001 it was 27.8 µM; at HLA-A*3101, 31.8 µM; on HLA-A*3301, greater than 70000 nM; at HLA-A*6801, 57.1 µM.
